From PubChem BioAssay (NCI)
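These data come from cells grown in 96-well plates and exposed to compound for 48 hours at five concentrations. TGI: concentration producing complete growth inhibition.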

What was measured:
Assay in all cases: NCI anticancer screen, dose series, 48 h
CCRF-CEM leukemia = test system: CCRF-CEM leukemia
OVCAR-5 ovarian = test system: OVCAR-5 ovarian
EKVX NSCLC = test system: EKVX NSCLC
OVCAR-4 ovarian = test system: OVCAR-4 ovarian
ACHN renal = test system: ACHN renal
DLD-1 colon = test system: DLD-1 colon
MOLT-4 leukemia = test system: MOLT-4 leukemia
DMS 114 small cell lung = test system: DMS 114 small cell lung
A549 NSCLC = test system: A549 NSCLC
CAKI-1 renal = test system: CAKI-1 renal
IGROV1 ovarian = test system: IGROV1 ovarian
HOP-18 NSCLC = test system: HOP-18 NSCLC
SNB-78 CNS = test system: SNB-78 CNS
COLO 205 colon = test system: COLO 205 colon
SN12C renal = test system: SN12C renal
RPMI-8226 leukemia = test system: RPMI-8226 leukemia
786-0 renal = test system: 786-0 renal
HCT-116 colon = test system: HCT-116 colon
OVCAR-3 ovarian = test system: OVCAR-3 ovarian
UACC-62 melanoma = test system: UACC-62 melanoma
HCT-15 colon = test system: HCT-15 colon
U251 CNS = test system: U251 CNS
K-562 leukemia = test system: K-562 leukemia
SK-MEL-28 melanoma = test system: SK-MEL-28 melanoma
HT29 colon = test system: HT29 colon
HL-60(TB) leukemia = test system: HL-60(TB) leukemia
KM20L2 colon = test system: KM20L2 colon
SF-539 CNS = test system: SF-539 CNS
TK-10 renal = test system: TK-10 renal
SNB-75 CNS = test system: SNB-75 CNS
UO-31 renal = test system: UO-31 renal
SK-MEL-2 melanoma = test system: SK-MEL-2 melanoma
LOX IMVI melanoma = test system: LOX IMVI melanoma
DMS 273 small cell lung = test system: DMS 273 small cell lung
MALME-3M melanoma = test system: MALME-3M melanoma
M19-MEL melanoma = test system: M19-MEL melanoma
KM12 colon = test system: KM12 colon
SF-268 CNS = test system: SF-268 CNS
SW-620 colon = test system: SW-620 colon
LXFL 529 NSCLC = test system: LXFL 529 NSCLC
NCI-H226 lung = test system: NCI-H226 lung
HOP-62 NSCLC = test system: HOP-62 NSCLC
SNB-19 CNS = test system: SNB-19 CNS
HCC-2998 colon = test system: HCC-2998 colon
SK-MEL-5 melanoma = test system: SK-MEL-5 melanoma
NCI-H23 lung = test system: NCI-H23 lung
A498 renal = test system: A498 renal
SK-OV-3 ovarian = test system: SK-OV-3 ovarian
NCI-H522 lung = test system: NCI-H522 lung
OVCAR-8 ovarian = test system: OVCAR-8 ovarian
M14 melanoma = test system: M14 melanoma
UACC-257 melanoma = test system: UACC-257 melanoma
NCI-H460 lung = test system: NCI-H460 lung
HOP-92 NSCLC = test system: HOP-92 NSCLC
SR leukemia = test system: SR leukemia
SF-295 CNS = test system: SF-295 CNS
RXF 393 renal = test system: RXF 393 renal
XF 498 CNS = test system: XF 498 CNS

Measured: TGI

O=c1[nH]c(=O)n([C@H]2C[C@@H](CO)[C@@H](O)C2)cc1I
not listed: SR leukemia | SF-295 CNS | RXF 393 renal | XF 498 CNS
> 100 µM: all other assays above

C/C=C1\Oc2ccc(OC)cc2S1(=O)=O
not listed: SF-539 CNS | XF 498 CNS
> 100 µM: all other assays above

Cc1[nH]c(=O)n2c(C)nnc2c1C(=O)O
not listed: A549 NSCLC | HOP-18 NSCLC | KM20L2 colon | SNB-75 CNS | DMS 273 small cell lung | SNB-19 CNS | HCC-2998 colon | SK-MEL-5 melanoma | A498 renal | UACC-257 melanoma
> 100 µM: all other assays above

CCOC(=O)/C(C1=NCCN1C)=C(\O)c1ccccc1
not listed: DMS 114 small cell lung | SF-539 CNS | TK-10 renal | SNB-75 CNS | DMS 273 small cell lung | A498 renal | SK-OV-3 ovarian | HOP-92 NSCLC
> 100 µM: all other assays above
